# Data reported in patent publication US11472812B2, “Anti-cancer compounds targeting Ral GTPases and methods of using the same” (The Regents of the University of Colorado, a body corporate, priority 2014, dated 2022).
# Changes are numbered by the printed parent chain.
# How the values were obtained:
# RalB-GDP [1] = target: T1, RalB-GDP (Homo sapiens, UniProt P11234, Q72L); assay: Surface Plasma Resonance (SPR) binding, Biacore 3000; conditions: RalB immobilized on CM5 chip; PBS pH 7.4, 1 μM GDP, 2 mM MgCl2, 3% DMSO
# T1 construct: made in house
# T1 sequence (P11234 1-206 Q72L): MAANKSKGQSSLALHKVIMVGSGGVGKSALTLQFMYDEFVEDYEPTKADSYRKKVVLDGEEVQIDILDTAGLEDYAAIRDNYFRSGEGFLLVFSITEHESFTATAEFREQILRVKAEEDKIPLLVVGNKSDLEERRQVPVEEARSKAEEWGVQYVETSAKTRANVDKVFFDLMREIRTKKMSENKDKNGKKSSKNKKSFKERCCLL
# Protocol: (§1) Consequently, the binding of BQU57 to RalB-GDP was then determined using Isothermal Titration Calorimetry (ITC). ITC experiments were carried out using the MicroCal iTC200 system. Both protein and drug were prepared in 50 mM sodium phosphate, pH 7.6, 100 mM NaCl, and 1 mM MgCl2. Final DMSO concentration was adjusted to 1%. RalB-GDP protein (500 μM) were loaded into the syringe and titrated into drug (25 μM) or buffer alone as control. All experiments were carried out at 25° C. […] SPR experiments were carried out using the Biacore 3000 system. Running buffer: PBS, pH 7.4, 1 μM GDP, 2 mM MgCl2, 3% DMSO. Regeneration buffer: PBS, pH 7.4, 1 μM GDP, 2 mM Mg Cl2. RalB protein was immobilized on CM5 chip; samples of compound BQU57 in running buffer were injected at 30 μL/min for 60 s contact time followed by 5 minute regeneration.
# RalB-GDP [2] = target: T1, RalB-GDP; assay: Isothermal Titration Calorimetry (ITC); assay type: binding; conditions: 25° C.; 50 mM sodium phosphate pH 7.6; 1% DMSO
# Protocol: as §1
# physchem = assay type: physicochemical; conditions: aqueous buffer
# [3] = Pharmacokinetics after single intraperitoneal injection; assay type: in vivo; conditions: 50.0 mg/kg i.p., n = 3, nude mice
# Protocol: Inhibition of Ral activity and tumor growth were evaluated in human lung cancer mouse models. Pharmacokinetics (PK) of RBC8 and BQU57 were first analyzed in nude mice to test bioavailability. Following a single intraperitoneal injection (50 mg/Kg), blood samples were collected at time intervals from 0 to 5 h post-dose (9 time points).
# RalA [4] = target: T2, RalA (Homo sapiens, UniProt P11233); assay: RalBP1 pull-down of Ral activity in H2122 xenograft tumors; assay type: in vivo; conditions: single i.p. dose, RBC8 50 mg/kg or BQU57 10/20/50 mg/kg, tumors collected 3 h post-dose
# T2 sequence (P11233 1-206): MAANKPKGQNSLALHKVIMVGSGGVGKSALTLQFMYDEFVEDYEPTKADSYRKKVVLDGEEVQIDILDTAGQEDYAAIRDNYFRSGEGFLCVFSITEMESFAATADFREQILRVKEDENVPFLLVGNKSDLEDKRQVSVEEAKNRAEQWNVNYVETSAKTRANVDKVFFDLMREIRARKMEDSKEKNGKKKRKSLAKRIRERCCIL
# Protocol: (§2) Finally, we evaluated Ral GTPase activity in vivo in the H2122 xenografts. Nude mice were inoculated with 5×10^6 cells H2122 cells s.c. at four sites per mice. Tumor size reached an average of 250 mm^3 in ten days, at which time mice were given a signal i.p. dose of RBC8 or BQU57 at various concentrations. Tumors were then collected 3 h after injection of RBC8 or BQU57. RalA and RalB activity in tumor samples were then measured using the RalBP1 pull-down assay kit (Millipore #14-415). Ras and RhoA activity in tumor samples were measured using the respective pull-down assay kits. All the activity assays used western blotting as the final readout. For quantification of the immunoblots, the bands on each blot were first normalized to their respective internal control (10 ng of recombinant Ral, Ras, or […] protein run in the last lane) the numbers were then compared across different blots, each of which represented one treatment condition. Mice bearing H2122 tumors (median size 250 mm^3) were given a single intraperitoneal dose of RBC8 (50 mg/kg) or BQU57 (10/20/50 mg/kg) and tumors collected 3 h post-dose.
# RalB [5] = target: T3, RalB (Homo sapiens, UniProt P11234); assay: as above; assay type: in vivo; conditions: single i.p. dose, RBC8 50 mg/kg or BQU57 10/20/50 mg/kg, tumors collected 3 h post-dose
# T3 sequence (P11234 1-206): T1 sequence (P11234 1-206 Q72L) with L72Q
# Protocol: as §2
# RhoA = target: T4, RhoA (Homo sapiens, UniProt P61586); assay: RhoA activity pull-down in H2122 xenograft tumors; assay type: in vivo; conditions: BQU57 treated H2122 tumors, 3 h post-dose
# T4 construct: from tissue; host or cells: H2122 xenograft tumours from nude mice
# Description: Activity assay kits for Ras (#BK008) and RhoA (#BK036) were obtained from Cytoskeleton (Denver, Colo.). We used an ELISA for Ral activity based on selective binding of active RalA-GTP to its effector protein RalBP1.
# as §2
# RalA [6] = target: T2, RalA; assay: Ral activity pull-down assay with RalBP1 agarose beads in cells; assay type: cell-based; set-up: endogenous in cells; host or cells: H2122 and H358 human lung cancer cells; conditions: H2122 and H358 cells, 10 μM compound, 3 hrs
# Protocol: (§3) FIGS. 6A-6E show the cellular uptake of Ral inhibitors in vitro. H2122 human lung cancer cells were treated with 10 μM of RBC8 (FIG. 6A), BQU57 (FIG. 6B), BQU85 (FIG. 6C), and RBC5 (FIG. 6D). Cells were collected at different time points (1, 5, 15, 30 and 60 min), and drug concentrations in cells determined using LC/MS-MS methods (n=3 for each time point). […] Cells were grown under anchorage-independent conditions and treated with 10 μM compounds for 3 hours. Ral activity in cell lysates were then determined using the pull down assay with RalBP1 agarose beads. Data represent three independent experiments.
# (§4) To confirm that Ral activity is inhibited in H2122 and H358 cells by drug treatment, we performed the Ral activity pull-down assay. Cells were treated with drug for 3 hrs, collected and Ral activity measured using the RalBP1 pull-down assay kit (Millipore #14-415). RBC8 and BQU57 but not RBC5 inhibited both RalA and RalB activity in both cell lines (FIG. 6E).
# RalB [7] = target: T3, RalB; assay: as above; assay type: cell-based; set-up: endogenous in cells; host or cells: H2122 and H358 human lung cancer cells; conditions: H2122 and H358 cells, 10 μM compound, 3 hrs
# Protocol: as §3, §4
# T4 sequence (P61586 whole entry): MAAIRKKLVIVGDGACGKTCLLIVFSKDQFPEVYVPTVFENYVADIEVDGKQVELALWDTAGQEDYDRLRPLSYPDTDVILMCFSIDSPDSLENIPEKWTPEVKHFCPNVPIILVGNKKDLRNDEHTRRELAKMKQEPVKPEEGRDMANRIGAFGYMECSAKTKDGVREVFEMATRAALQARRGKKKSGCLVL
SMILES,Kd (RalB-GDP [1]),Kd (RalB-GDP [2]),solubility (physchem),Co [3],"half-life ([3]; mouse, blood, ip)","AUC(0-t) ([3]; mouse, blood, ip, read-out: AUC0-5 hr)",inhibition of RalA activity in tumors (RalA [4]),inhibition of RalB activity in tumors (RalB [5]),inhibition of RhoA activity in tumors (RhoA),inhibition of RalA activity (RalA [6]),inhibition of RalB activity (RalB [7]),T1/2 [3]
"Cc1nn(C)c2c1C(c1ccc(C(F)(F)F)cc1)C(C#N)=C(N)O2 (centres unmarked) [BQU57, 6-amino-1,3-dimethyl-4-(4-(trifluoromethyl)phenyl)-1,4-dihydropyrano[2,3-c]pyrazole-5-carbonitrile]",4.7 ± 1.5 µM,7.7 ± 0.6 µM,~75 µM,41.6 ± 5.1 µM,1.5 ± 0.11 h,28600 ± 2100 ng·h/mL,significant inhibition,significant inhibition,no significant inhibition,inhibited,inhibited,–
COc1ccc(OC)c(C2C(C#N)=C(N)Oc3n[nH]c(-c4ccc5ccccc5c4)c32)c1 (centres unmarked) [RBC8],–,–,–,41.2 ± 4.2 µM,–,–,significant inhibition,significant inhibition,–,inhibited,inhibited,0.58 ± 0.26 h
